Legend:
[1] = test system: oval-leafed pondweed; test: Test Example 2: herbicidal activity, application during weed generation under submerged conditions (Table 17, symbol C); format: in vivo, oval-leafed pondweed (Monochoria vaginalis); settings: AAH 178 g/ha; application during weed generation, submerged conditions
How it was run: (§1)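 Wagner pot, alluvial soil, 4 cm flood; mixed sowing of all species; greenhouse 25° C.–30° C. Emulsifiable formulation, water-diluted to predetermined dose, applied to paddy water at 1–2 leaf stage. Effect rated at 3 wk using the earlier test's scoring criteria.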

[2] = test system: persian speedwell; test: Test Example 5: herbicidal effect by foliage application, plastic box (Table 20, symbol R); format: in vivo, Persian speedwell (Veronica persica); settings: foliage application, 178 g/ha, 3 weeks after application
How it was run: (§2)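 Sow seeds spot-wise in sterilized diluvial soil; cover with ~1.5 cm soil. Grow 14 days in greenhouse, 25° C. to 30° C. Spray foliage with emulsion diluted to predetermined amount. Rate effect after 3 weeks.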

[3] = test system: barnyard grass; test: Test Example 3: herbicidal effect by foliage application, Wagner pot (Table 18, symbol H); format: in vivo, barnyard grass (Echinochloa crus-galli); settings: 178 g/ha
How it was run: (§3)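 Plants were sown in alluvial soil held under 0.1–0.5 cm standing water and grown 14 days in a greenhouse at 25–30 °C. An emulsifiable formulation, water-diluted to the set dose, was then sprayed onto the foliage, and effects were scored three weeks later using previously defined criteria.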

[4] = test system: rice flat sedge; test: Test Example 3: herbicidal effect by foliage application, Wagner pot (Table 18, symbol E); format: in vivo, rice flat sedge (Cyperus iria); settings: 178 g/ha
How it was run: as §3

[5] = test system: Italian ryegrass; test: Test Example 5: herbicidal effect by foliage application, plastic box (Table 20, symbol K); format: in vivo, Italian ryegrass (Lolium multiflorum); settings: foliage application, 178 g/ha, 3 weeks after application
How it was run: as §2

[6] = test system: Chinese sprangletop; test: Test Example 3: herbicidal effect by foliage application, Wagner pot (Table 18, symbol D); format: in vivo, chinese sprangletop (Leptochloa chinensis); settings: 178 g/ha
How it was run: as §3

[7] = test system: redroot pigweed; test: Test Example 4: herbicidal effect by soil treatment (Table 19, symbol N); format: in vivo, redroot pigweed (Amaranthus retroflexus); settings: AAH 178 g/ha
How it was run: (§4)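 Applied as a water-diluted emulsion, the compound was sprayed onto soil covering newly sown seeds. Evaluation came three weeks after application, in a greenhouse held at 25° C. to 30° C.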

[8] = test system: chickweed; test: Test Example 4: herbicidal effect by soil treatment (Table 19, symbol P); format: in vivo, common chickweed (Stellaria media); settings: AAH 178 g/ha
How it was run: as §4

[9] = test system: velvetleaf; test: Test Example 5: herbicidal effect by foliage application, plastic box (Table 20, symbol M); format: in vivo, velvetleaf (Abutilon theophrasti); settings: foliage application, 178 g/ha, 3 weeks after application
How it was run: as §2

[10] = test system: southern crabgrass; test: Test Example 5: herbicidal effect by foliage application, plastic box (Table 20, symbol F); format: in vivo, southern crabgrass (Digitaria ciliaris); settings: foliage application, 178 g/ha, 3 weeks after application
How it was run: as §2

[11] = test system: late watergrass; test: Test Example 2: herbicidal activity, application during weed generation under submerged conditions (Table 17, symbol A); format: in vivo, late watergrass (Echinochloa oryzicola); settings: AAH 178 g/ha; application during weed generation, submerged conditions
How it was run: as §1

[12] = test system: false cleavers; test: Test Example 4: herbicidal effect by soil treatment (Table 19, symbol Q); format: in vivo, false cleavers (Galium spurium); settings: AAH 178 g/ha
How it was run: as §4

[13] = test system: wild oat; test: Test Example 4: herbicidal effect by soil treatment (Table 19, symbol I); format: in vivo, wild oat (Avena fatua); settings: AAH 178 g/ha
How it was run: as §4

[14] = test system: southern crabgrass; test: Test Example 4: herbicidal effect by soil treatment (Table 19, symbol F); format: in vivo, southern crabgrass (Digitaria ciliaris); settings: AAH 178 g/ha
How it was run: as §4

[15] = test system: green foxtail; test: Test Example 5: herbicidal effect by foliage application, plastic box (Table 20, symbol G); format: in vivo, green foxtail (Setaria viridis); settings: foliage application, 178 g/ha, 3 weeks after application
How it was run: as §2

[16] = test system: lambsquarters; test: Test Example 4: herbicidal effect by soil treatment (Table 19, symbol O); format: in vivo, lambsquarters (Chenopodium album); settings: AAH 178 g/ha
How it was run: as §4

[17] = test system: Japanese bulrush; test: Test Example 2: herbicidal activity, application during weed generation under submerged conditions (Table 17, symbol B); format: in vivo, Japanese bulrush (Schoenoplectus juncoides); settings: AAH 178 g/ha; application during weed generation, submerged conditions
How it was run: as §1

[18] = test system: velvetleaf; test: Test Example 4: herbicidal effect by soil treatment (Table 19, symbol M); format: in vivo, velvetleaf (Abutilon theophrasti); settings: AAH 178 g/ha
How it was run: as §4

[19] = test system: wild oat; test: Test Example 5: herbicidal effect by foliage application, plastic box (Table 20, symbol I); format: in vivo, wild oat (Avena fatua); settings: foliage application, 178 g/ha, 3 weeks after application
How it was run: as §2

[20] = test system: barnyard grass; test: Test Example 4: herbicidal effect by soil treatment (Table 19, symbol H); format: in vivo, barnyard grass (Echinochloa crus-galli); settings: AAH 178 g/ha
How it was run: as §4

[21] = test system: barnyard grass; test: Test Example 5: herbicidal effect by foliage application, plastic box (Table 20, symbol H); format: in vivo, barnyard grass (Echinochloa crus-galli); settings: foliage application, 178 g/ha, 3 weeks after application
How it was run: as §2

[22] = test system: lambsquarters; test: Test Example 5: herbicidal effect by foliage application, plastic box (Table 20, symbol O); format: in vivo, lambsquarters (Chenopodium album); settings: foliage application, 178 g/ha, 3 weeks after application
How it was run: as §2

[23] = test system: blackgrass; test: Test Example 4: herbicidal effect by soil treatment (Table 19, symbol J); format: in vivo, blackgrass (Alopecurus myosuroides); settings: AAH 178 g/ha
How it was run: as §4

[24] = test system: persian speedwell; test: Test Example 4: herbicidal effect by soil treatment (Table 19, symbol R); format: in vivo, Persian speedwell (Veronica persica); settings: AAH 178 g/ha
How it was run: as §4

[25] = test system: windgrass; test: Test Example 5: herbicidal effect by foliage application, plastic box (Table 20, symbol L); format: in vivo, windgrass (Apera spica-venti); settings: foliage application, 178 g/ha, 3 weeks after application
How it was run: as §2

[26] = test system: windgrass; test: Test Example 4: herbicidal effect by soil treatment (Table 19, symbol L); format: in vivo, windgrass (Apera spica-venti); settings: AAH 178 g/ha
How it was run: as §4

[27] = test system: Italian ryegrass; test: Test Example 4: herbicidal effect by soil treatment (Table 19, symbol K); format: in vivo, Italian ryegrass (Lolium multiflorum); settings: AAH 178 g/ha
How it was run: as §4

[28] = test system: blackgrass; test: Test Example 5: herbicidal effect by foliage application, plastic box (Table 20, symbol J); format: in vivo, blackgrass (Alopecurus myosuroides); settings: foliage application, 178 g/ha, 3 weeks after application
How it was run: as §2

[29] = test system: green foxtail; test: Test Example 4: herbicidal effect by soil treatment (Table 19, symbol G); format: in vivo, green foxtail (Setaria viridis); settings: AAH 178 g/ha
How it was run: as §4

## COCCOCOc1c(C)nn(C)c(=O)c1-c1c(-c2ccc(OC(F)F)cc2)sc2ccccc12 [1-202]
[1]
  herbicidal effect rating, C: oval-leafed pondweed: 0 (Herbicidal rate of 5% or less (almost no effect))
[2]
  effect on persian speedwell (R): 5 (Herbicidal rate of 90% or more (almost completely withered))
[3]
  herbicidal effect on H (barnyard grass), rating 0-5: 5 (Herbicidal rate of 90% or more (almost completely withered))
[4]
  herbicidal effect on E (rice flat sedge), rating 0-5: 5 (Herbicidal rate of 90% or more (almost completely withered))
[5]
  effect on Italian ryegrass (K): 5 (Herbicidal rate of 90% or more (almost completely withered))
[6]
  herbicidal effect on D (Chinese sprangletop), rating 0-5: 3 (Herbicidal rate of 40% or more and less than 70%)
[7]
  N: redroot pigweed, herbicidal effect rating: 5 (Herbicidal rate of 90% or more (almost completely withered))
[8]
  P: chickweed, herbicidal effect rating: 3 (Herbicidal rate of 40% or more and less than 70%)
[9]
  effect on velvetleaf (M): 5 (Herbicidal rate of 90% or more (almost completely withered))
[10]
  effect on southern crabgrass (F): 1 (Herbicidal rate of 5% or more and less than 20%)
[11]
  herbicidal effect rating, A: late watergrass: 2 (Herbicidal rate of 20% or more and less than 40%)
[12]
  Q: false cleavers, herbicidal effect rating: 3 (Herbicidal rate of 40% or more and less than 70%)
[13]
  I: wild oat, herbicidal effect rating: 0 (Herbicidal rate of 5% or less (almost no effect))
[14]
  F: southern crabgrass, herbicidal effect rating: 0 (Herbicidal rate of 5% or less (almost no effect))
[15]
  effect on green foxtail (G): 5 (Herbicidal rate of 90% or more (almost completely withered))
[16]
  O: lambsquarters, herbicidal effect rating: 4 (Herbicidal rate of 70% or more and less than 90%)
[17]
  herbicidal effect rating, B: Japanese bulrush: 3 (Herbicidal rate of 40% or more and less than 70%)
[18]
  M: velvetleaf, herbicidal effect rating: 2 (Herbicidal rate of 20% or more and less than 40%)
[19]
  effect on wild oat (I): 0 (Herbicidal rate of 5% or less (almost no effect))
[20]
  H: barnyard grass, herbicidal effect rating: 3 (Herbicidal rate of 40% or more and less than 70%)
[21]
  effect on barnyard grass (H): 4 (Herbicidal rate of 70% or more and less than 90%)
[22]
  effect on lambsquarters (O): 5 (Herbicidal rate of 90% or more (almost completely withered))
[23]
  J: blackgrass, herbicidal effect rating: 0 (Herbicidal rate of 5% or less (almost no effect))
[24]
  R: persian speedwell, herbicidal effect rating: 4 (Herbicidal rate of 70% or more and less than 90%)
[25]
  effect on windgrass (L): 0 (Herbicidal rate of 5% or less (almost no effect))
[26]
  L: windgrass, herbicidal effect rating: 0 (Herbicidal rate of 5% or less (almost no effect))
[27]
  K: Italian ryegrass, herbicidal effect rating: 4 (Herbicidal rate of 70% or more and less than 90%)
[28]
  effect on blackgrass (J): 3 (Herbicidal rate of 40% or more and less than 70%)
[29]
  G: green foxtail, herbicidal effect rating: 4 (Herbicidal rate of 70% or more and less than 90%)

Source: patent publication US20230085307A1, “PYRIDAZINONE COMPOUND AND HERBICIDE” (NISSAN CHEMICAL CORPORATION, priority 2019, published 2023)
